SMILES strings stand for the structures.

Test [1] concerns the target T1, N-His-ObgGC (NGO1990) (Neisseria gonorrhoeae, UniProt Q5F5D9).
T1 construct: gene obg
Description: mant fluorescence enhancement, plate reader. Particulars: 2 uM protein, 50 mM Tris-HCl pH 8.0, 50 mM KCl, 37 C. Format: binding.

In test [2] the target is T1, N-His-ObgGC (NGO1990). Description: single-turnover hydrolysis, decrease of mant fluorescence. Format: biochemical. Particulars: 0.3 uM mant-GTP prebound to 16 uM protein, 5 mM MgCl2, pH 8.0, 37 C; first-order rate constant.

T1 sequence (Q5F5D9 whole entry): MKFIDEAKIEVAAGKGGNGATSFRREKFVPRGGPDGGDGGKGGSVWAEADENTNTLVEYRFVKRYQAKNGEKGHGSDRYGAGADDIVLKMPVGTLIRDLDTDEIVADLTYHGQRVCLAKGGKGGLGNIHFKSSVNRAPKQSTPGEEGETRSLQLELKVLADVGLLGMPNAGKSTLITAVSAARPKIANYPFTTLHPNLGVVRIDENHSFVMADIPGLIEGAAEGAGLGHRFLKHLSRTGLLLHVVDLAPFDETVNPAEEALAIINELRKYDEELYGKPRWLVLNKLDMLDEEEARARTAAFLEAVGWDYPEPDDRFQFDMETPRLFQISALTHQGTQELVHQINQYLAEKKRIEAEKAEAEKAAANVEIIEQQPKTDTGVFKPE

For `CNc1ccccc1C(=O)O[C@H]1[C@@H](O)[C@H](n2cnc3c(=O)[nH]c(N)nc32)O[C@@H]1COP(=O)(O)OP(=O)(O)OP(=O)(O)O` [mant-GTP], on N-His-ObgGC (NGO1990) [1] (0.3 uM mant-GTP, 5 mM Mg2+), the “fold enhancement in mant-nucleotide fluorescence” value is given as 1.9 fold. Besides, on N-His-ObgGC (NGO1990) [2], the kh is 0.00023 s⁻¹.

Consider `CNc1ccccc1C(=O)O[C@H]1[C@@H](O)[C@H](n2cnc3c(=O)[nH]c(N)nc32)O[C@@H]1COP(=O)(O)OP(=O)(O)O` [mant-GDP], for which the “fold enhancement in mant-nucleotide fluorescence” value on N-His-ObgGC (NGO1990) [1] (0.3 uM mant-GDP, no Mg2+) was 1.3 fold.

The record behind these values is paper PMC4487204, “The Neisseria gonorrhoeae Obg protein is an essential ribosome-associated GTPase and a potential drug target” (BMC Microbiology, 2015).
